Results taken from patent publication US20060063759A1, “Tricyclic steroid hormone nuclear receptor modulators” (priority 2002, published 2006).

Key:
[1] = molecular target: T1, glucocorticoid receptor (Homo sapiens, UniProt P04150); test: Glucocorticoid Receptor Binding Assay ([3H]-dexamethasone, A549 cell extract); settings: [3H]-dexamethasone binding, read-out: GR Ki
T1 construct: containing 50-200 ug of A549 cell extract and 1.86 nM [^3H]-dexamethasone; host or cells: A549 human lung epithelial cells (sonicated cell extract)
T1 sequence (P04150 1-777): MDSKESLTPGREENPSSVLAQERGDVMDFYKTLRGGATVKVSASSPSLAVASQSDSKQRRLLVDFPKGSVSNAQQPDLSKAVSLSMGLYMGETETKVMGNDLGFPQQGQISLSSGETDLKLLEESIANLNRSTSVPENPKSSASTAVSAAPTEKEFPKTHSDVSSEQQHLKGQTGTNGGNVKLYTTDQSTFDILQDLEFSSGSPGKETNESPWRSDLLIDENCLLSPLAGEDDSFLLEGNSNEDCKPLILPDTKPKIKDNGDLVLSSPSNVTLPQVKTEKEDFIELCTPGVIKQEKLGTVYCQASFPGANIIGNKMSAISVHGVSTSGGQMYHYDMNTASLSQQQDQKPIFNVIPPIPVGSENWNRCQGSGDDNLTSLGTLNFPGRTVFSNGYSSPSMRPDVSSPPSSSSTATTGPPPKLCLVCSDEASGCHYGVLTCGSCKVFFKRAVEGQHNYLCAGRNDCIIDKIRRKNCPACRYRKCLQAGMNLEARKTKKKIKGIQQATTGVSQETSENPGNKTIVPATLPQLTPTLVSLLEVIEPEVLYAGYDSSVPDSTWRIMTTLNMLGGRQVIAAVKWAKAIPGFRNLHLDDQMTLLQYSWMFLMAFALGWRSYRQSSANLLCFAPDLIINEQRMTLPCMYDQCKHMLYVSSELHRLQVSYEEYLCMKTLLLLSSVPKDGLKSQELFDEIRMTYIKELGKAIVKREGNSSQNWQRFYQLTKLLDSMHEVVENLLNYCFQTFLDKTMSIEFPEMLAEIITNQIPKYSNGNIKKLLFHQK
Summary of the method: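 A549 cell extract (50–200 ug) incubated with 1.86 nM [3H]-dexamethasone and test compound for 16 h at 4 °C in Tris-HCl pH 7.2 buffer with glycerol and molybdate. Unbound radioligand removed by dextran-coated charcoal, then supernatant bound counts measured by scintillation.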

[2] = molecular target: T2, human MR (Homo sapiens, UniProt P08235); test: Mineralocorticoid Receptor Binding Assay ([3H]-aldosterone); settings: [3H]-aldosterone binding, human MR expressed in Sf9 cells; read-out: MR Ki
T2 construct: The full length human MR gene is cloned from a human kidney or human brain cDNA library; His tag from the pAcHLT vector (own knowledge); made in house; host or cells: Sf9 insect cells (baculovirus, pAcHLT transfer vector)
T2 sequence (P08235 1-984): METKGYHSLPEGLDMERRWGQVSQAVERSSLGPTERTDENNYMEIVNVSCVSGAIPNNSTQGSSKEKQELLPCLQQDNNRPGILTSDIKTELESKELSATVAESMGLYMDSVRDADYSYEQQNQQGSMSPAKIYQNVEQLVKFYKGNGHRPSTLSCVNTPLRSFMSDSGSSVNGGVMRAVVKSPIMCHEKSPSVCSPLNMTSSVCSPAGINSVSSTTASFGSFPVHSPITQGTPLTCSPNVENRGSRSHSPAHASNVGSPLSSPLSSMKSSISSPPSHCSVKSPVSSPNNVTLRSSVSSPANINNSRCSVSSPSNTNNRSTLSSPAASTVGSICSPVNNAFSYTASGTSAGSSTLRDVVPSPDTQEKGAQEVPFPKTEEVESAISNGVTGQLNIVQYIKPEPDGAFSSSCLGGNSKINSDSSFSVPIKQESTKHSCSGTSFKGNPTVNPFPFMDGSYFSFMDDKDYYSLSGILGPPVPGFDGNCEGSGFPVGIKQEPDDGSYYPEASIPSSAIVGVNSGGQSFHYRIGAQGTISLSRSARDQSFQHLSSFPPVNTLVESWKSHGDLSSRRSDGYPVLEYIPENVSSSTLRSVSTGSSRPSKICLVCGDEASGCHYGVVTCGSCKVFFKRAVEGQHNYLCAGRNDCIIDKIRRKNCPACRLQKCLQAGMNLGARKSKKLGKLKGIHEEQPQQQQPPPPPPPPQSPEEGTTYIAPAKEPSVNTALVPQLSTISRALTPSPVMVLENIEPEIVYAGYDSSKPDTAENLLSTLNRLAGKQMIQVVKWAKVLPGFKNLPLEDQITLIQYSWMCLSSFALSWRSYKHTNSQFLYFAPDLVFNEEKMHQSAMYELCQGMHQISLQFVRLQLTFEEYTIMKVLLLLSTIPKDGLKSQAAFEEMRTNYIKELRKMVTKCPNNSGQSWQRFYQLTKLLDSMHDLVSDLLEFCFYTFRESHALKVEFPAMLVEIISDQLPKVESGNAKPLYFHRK
Summary of the method: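 Lysate supernatant of Sf9 cells expressing full-length human MR (20-25 μg protein) was incubated with 0.5 nM [3H]-aldosterone and test compound in molybdate/Tris/phosphate/glycerol buffer, pH 7.5, ~16 h at 4 °C. Bound ligand was filtered and counted by scintillation; IC50 is the concentration halving [3H]-aldosterone binding.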

Work on `NS(=O)(=O)c1cccc(C=C2c3ccccc3CCc3ccccc32)c1` [Example 24, 3-(10,11-Dihydro-dibenzo[a,d]cyclohepten-5-ylidenemethyl)-benzenesulfonamide] yielded a melting point of 204 °C.
In the case of `Brc1cccc(C=C2c3ccccc3CCc3ccccc32)c1` [Example 28, 5-(3-Bromo-benzylidene)-10,11-dihydro-5H-dibenzo-[a,d]cycloheptene], the melting point is reported as 104.7 °C.
Work on `CC(=O)Nc1ccccc1C=C1c2ccccc2CCc2ccccc21` [Example 115, N-[2-(10,11-Dihydro-dibenzo[a,d]cyclohepten-5-ylidenemethyl)-phenyl]-acetamide] yielded a melting point of 189.7 °C.
With `COc1ccc(C=C2c3ccccc3CCc3ccccc32)cc1N` [Example 89, 5-(10,11-Dihydro-dibenzo[a,d]cyclohepten-5-ylidenemethyl)-2-methoxy-phenylamine] the melting point was 62.7 °C.
With `FC(F)Oc1ccccc1C=C1c2ccccc2CCc2ccccc21` [Example 66, 5-(2-Difluoromethoxy-benzylidene)-10,11-dihydro-5H-dibenzo[a,d]cycloheptene] the melting point was 81.1 °C.
`Cc1cc(S(=O)(=O)N2CCOCC2)c(C=C2c3ccccc3CCc3ccccc32)cc1Cl` [Example 12, 4-[4-Chloro-2-(10,11-dihydro-dibenzo[a,d]cyclohepten-5-ylidenemethyl)-5-methyl-benzenesulfonyl]-morpholine] showed a melting point of 194.7 °C.
For `CCNS(=O)(=O)c1cc(C)ccc1C=C1c2ccccc2CCc2ccccc21` [Example 17, 2-(10,11-Dihydro-dibenzo[a,d]cyclohepten-5-ylidenemethyl)-N-ethyl-5-methyl-benzenesulfonamide], the melting point was 172.4 °C.
`Cc1ccc(C=C2c3ccccc3CCc3ccccc32)c(S(=O)(=O)NCc2ccccc2)c1` [Example 15, N-Benzyl-2-(10,11-dihydro-dibenzo[a,d]cyclohepten-5-ylidenemethyl)-5-methyl-benzenesulfonamide] showed a melting point of 138.3 °C.
Work on `FC(F)Oc1ccc(C=C2c3ccccc3CCc3ccccc32)cc1` [Example 67, 5-(4-Difluoromethoxy-benzylidene)-10,11-dihydro-5H-dibenzo[a,d]cycloheptene] yielded a melting point of 65.8 °C.
`Cc1ccc(C=C2c3ccccc3CCc3ccccc32)c(S(=O)(=O)NCC(F)(F)F)c1` [Example 23, 2-(10,11-Dihydro-dibenzo[a,d]cyclohepten-5-ylidenemethyl)-5-methyl-N-(2,2,2-trifluoro-ethyl)-benzenesulfonamide] showed a melting point of 100.7 °C.
Molecule `Cc1nc2c(o1)CCc1ccccc1/C2=C/c1cccc(NS(C)(=O)=O)c1` [Example 247, N-[3-(2-Methyl-9,10-dihydro-1-oxa-3-aza-benzo[f]azulen-4-ylidenemethyl)-phenyl]-methanesulfonamide] has a melting point of 184.6 °C.
For `Cc1ccc(C=C2c3ccccc3CCc3ccccc32)c(S(=O)(=O)N(C)C)c1` [Example 19, 2-(10,11-Dihydro-dibenzo[a,d]cyclohepten-5-ylidenemethyl)-5,N,N-trimethyl-benzenesulfonamide], the melting point was 186.6 °C.
With `Brc1ccccc1C=C1c2ccccc2CCc2ccccc21` [Example 29, 5-(2-Bromo-benzylidene)-10,11-dihydro-5H-dibenzo-[a,d]cycloheptene] the melting point was 122.7 °C.
Work on `CS(=O)(=O)Nc1cccc(/C=C2\c3ccccc3CCc3ccsc32)c1` [Example 501] yielded a Ki [1] of less than 500 nM and a Ki [2] of less than 500 nM.
Work on `Fc1ccc2c(c1)CCc1ncccc1/C2=C/c1ccccc1C(F)F` [Example 539] yielded a Ki [1] of less than 500 nM and a Ki [2] of less than 500 nM.
Molecule `C/C(=C1/c2ccccc2COc2ccccc21)c1cccc(NS(C)(=O)=O)c1` [Example 796] has a Ki [1] of less than 500 nM and a Ki [2] of less than 500 nM.
For `O=c1[nH]c2cc(/C=C3\c4ccc(F)cc4COc4cc(F)ccc43)ccc2n1CCN1CCOCC1` [Example 617, 5-(3,8-Difluoro-6H-dibenzo[b,e]oxepin-11-ylidenemethyl)-1-(2-morpholin-4-yl-ethyl)-1,3-dihydro-benzoimidazol-2-one], the Ki [1] was less than 500 nM and the Ki [2] was less than 500 nM.
Work on `Cc1cccc2c1CCc1ccccc1/C2=C/c1cccc(NS(C)(=O)=O)c1` [Example 311] yielded a Ki [1] of less than 500 nM and a Ki [2] of less than 500 nM.
With `CS(=O)(=O)Nc1cccc(/C=C2\c3ccc(F)cc3CCc3nc(C#N)ccc32)c1` [Example 547] the Ki [1] was less than 500 nM and the Ki [2] was less than 500 nM.
In the case of `CN(C)c1ccc2c(c1)CCc1ccccc1C2=Cc1cccc(NS(C)(=O)=O)c1` [Example 402], the Ki [1] is reported as less than 10000 nM and the Ki [2] is reported as less than 500 nM.
In the case of `Nc1cccc(C(=C2c3ccccc3CCc3ccccc32)c2ccc(-c3ccccc3)cc2)c1` [Example 766], the Ki [1] is reported as less than 10000 nM and the Ki [2] is reported as less than 500 nM.
With `Nc1ccc(/C=C2/c3ccc(F)cc3CCc3ncccc32)cc1` [Example 535] the Ki [1] was less than 10000 nM and the Ki [2] was less than 1000 nM.
`CS(=O)(=O)Nc1cccc(/C=C2\c3ccccc3CCc3cc(-c4nn[nH]n4)ccc32)c1` [Example 343] gave a Ki [1] of less than 500 nM and a Ki [2] of less than 1000 nM.
`Cc1ccc(NS(C)(=O)=O)cc1C=C1c2ccccc2CCc2ccccc21` [Example 47, N-[3-(10,11-Dihydro-dibenzo[a,d]cyclohepten-5-ylidenemethyl)-4-methyl-phenyl]-methanesulfonamide] gave a Ki [1] of less than 1000 nM and a Ki [2] of less than 500 nM.
Work on `O=c1[nH]c2ccc(/C=C3\c4ccc(F)cc4CCc4ncccc43)cc2[nH]1` [Example 487, (E)-5-(8-Fluoro-10,11-dihydro-benzo[4,5]cyclohepta[1,2-b]pyridin-5-ylidenemethyl)-1,3-dihydro-benzoimidazol-2-one] yielded a Ki [1] of less than 1000 nM and a Ki [2] of less than 500 nM.
In the case of `CS(=O)(=O)Nc1cccc(/C=C2/c3ccccc3CSc3cc(Cl)ccc32)c1` [Example 741], the Ki [1] is reported as less than 500 nM and the Ki [2] is reported as less than 500 nM.
Work on `O=c1[nH]c2cc(/C=C3/c4ccc(F)cc4OCc4ncsc43)ccc2n1CCN1CCOCC1` [Example 718] yielded a Ki [1] of less than 10000 nM and a Ki [2] of less than 500 nM.
With `Cc1nc2c(s1)/C(=C/c1cccc(NS(C)(=O)=O)c1)c1ccccc1CC2` [483(a), N-[3-(2-Methyl-9,10-dihydro-3-thia-1-aza-benzo[f]azulen-4-ylidenemethyl)-phenyl]-methanesulfonamide] the Ki [1] was less than 500 nM and the Ki [2] was less than 500 nM.
Molecule `O=c1[nH]c2cc(/C=C3\c4ccccc4COc4cc(F)ccc43)ccc2n1CCN1CCCC1` [Example 646] has a Ki [1] of less than 1000 nM and a Ki [2] of less than 500 nM.
`CS(=O)(=O)Nc1cccc(/C=C2/c3ccccc3CCc3ncsc32)c1` [Example 555] gave a Ki [1] of less than 500 nM and a Ki [2] of less than 500 nM.
For `O=c1[nH]c2ccc(/C=C3/c4ccccc4CCc4cc(C(F)F)ccc43)cc2[nH]1` [Example 452], the Ki [1] was less than 1000 nM and the Ki [2] was less than 500 nM.
